# Values of other authors, collected in US12239727B2, “Compositions for use in the treatment of photosensitivity” (RepoCeuticals A/S, priority 2018, dated 2025).
# Details: room temperature, solvent DMSO
smiles,measurement,value
"COc1ccc2[nH]cc(CCNC(C)=O)c2c1 [melatonin, N-acetyl-5-methoxytryptamine]",solubility in DMSO,≥ 232 g/L
